Measurements: patent US9187497B2, “Substituted pyrido[3,2-e]pyrrolo[1,2-a]pyrazines as inhibitors of poly(ADP-ribose)polymerase (PARP)” (Takeda Phamaceutical Company Limited, priority 2009, dated 2015)

How the values were obtained:
[1] = test system: Jurkat cell line; test: PARP cellular chemopotentiation assay (MTS cell viability with and without TMZ); type: cell-based; conditions: ratio of EC50 for inhibition of cell viability without and with 100 μM TMZ; Jurkat cells, 96 hours of treatment
Method in brief: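 Jurkat cells, 10,000/well, pre-cultured 24 h, then treated 96 h with serial compound dilutions (0.5% DMSO) with or without 100 μM TMZ. Viability by MTS conversion (OD490), normalized to DMSO controls; EC50 from curve fits, PF50 = EC50 without TMZ / EC50 with TMZ.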

[2] = molecular target: T1, PARP (Homo sapiens, UniProt P09874); test: PARP ELISA colorimetric assay of inhibition of PARP catalytic activity (IC50); type: biochemical; conditions: pIC50=-log(IC50), IC50 in molar concentration; ELISA-based PARP kit, 10 minutes of catalysis
T1 construct: purchased Trevigen 4684-096-01 (enzyme); kit 4684-096-K HT
Method: Inhibition Constant (IC50) from PARP ELISA
Inhibition of PARP catalytic activity was determined by use of an ELISA-based colorimetric PARP/Apoptosis Assay kit (part number 4684-096-K HT, Trevigen). To each histone coated well in the 96-well plate supplied by the manufacturer (part number 4677-096-P) is added 39 μl of PARP buffer (part number 4671-096-02) and 1 μl of test compound dissolved in DMSO (diluted serially 3-fold 11 times). After mixing, 5 μl of 0.1 nM PARP (part number 4684-096-01) is added and the solution allowed to stand at ambient temperature for 10 minutes. PARP catalysis is initiated with the addition of 5 μl of 100 μM β-nicotinamide adenine dinucleotide (NAD+) (part number 4684-096-02) with activated DNA (part number 4671-096-06). After 10 minutes of catalysis the reaction is quenched by solvent aspiration followed by irrigation of the assay wells 4 times with phosphate buffered saline (PBS) containing 0.1% t-Octylphenoxypolyethoxyethanol (Triton® X-100). Mouse Anti-poly ADP ribose (PAR) monoclonal antibody, goat antimouse immunoglobulin G (IgG)-horse radish peroxidase (HRP) conjugate and HRP substrate are added according to the manufacture's specifications to generate a colorimetric signal proportional to PARP catalytic activity. An IC50 for the test compound is calculated from the equation Absorbance=(Amax−background)/(1+([cmpd]/IC50)^n)+background fit to the 12 point test compound concentration gradient via nonlinear least squares.

T1 sequence (P09874 whole entry): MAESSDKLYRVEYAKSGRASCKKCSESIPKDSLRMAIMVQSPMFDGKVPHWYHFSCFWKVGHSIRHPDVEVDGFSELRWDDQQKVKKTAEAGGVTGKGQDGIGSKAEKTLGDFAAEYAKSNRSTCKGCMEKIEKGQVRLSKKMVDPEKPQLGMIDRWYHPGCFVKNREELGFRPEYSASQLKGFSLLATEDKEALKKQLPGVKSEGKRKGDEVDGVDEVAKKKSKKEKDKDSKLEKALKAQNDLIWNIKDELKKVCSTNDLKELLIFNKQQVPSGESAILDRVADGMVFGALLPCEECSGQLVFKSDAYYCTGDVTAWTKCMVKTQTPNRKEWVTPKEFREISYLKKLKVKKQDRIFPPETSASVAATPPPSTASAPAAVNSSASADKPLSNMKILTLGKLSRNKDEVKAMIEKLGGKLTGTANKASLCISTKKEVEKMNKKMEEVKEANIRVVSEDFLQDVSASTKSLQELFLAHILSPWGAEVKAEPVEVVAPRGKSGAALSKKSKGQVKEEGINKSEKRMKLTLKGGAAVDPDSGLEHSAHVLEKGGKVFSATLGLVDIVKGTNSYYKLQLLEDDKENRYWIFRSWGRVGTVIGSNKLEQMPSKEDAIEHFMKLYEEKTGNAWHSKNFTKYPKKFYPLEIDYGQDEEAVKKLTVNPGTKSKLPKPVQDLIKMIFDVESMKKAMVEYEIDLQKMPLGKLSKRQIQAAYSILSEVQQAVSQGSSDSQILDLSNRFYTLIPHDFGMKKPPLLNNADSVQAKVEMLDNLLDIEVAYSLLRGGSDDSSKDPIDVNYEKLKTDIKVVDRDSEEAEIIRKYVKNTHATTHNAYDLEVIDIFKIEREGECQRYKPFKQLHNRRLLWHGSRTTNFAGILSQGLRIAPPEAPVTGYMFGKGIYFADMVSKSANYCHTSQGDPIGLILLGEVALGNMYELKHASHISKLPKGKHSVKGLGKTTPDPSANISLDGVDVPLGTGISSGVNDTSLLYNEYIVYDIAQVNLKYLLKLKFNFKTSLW

SMILES | PF50 [1] | IC50 [2] [nM]
O=C1Nc2cc(CN3CCC(c4ccc(Cl)cc4)CC3)cnc2N2CCCC[C@@H]12 [Compound 70, (S)-3-((4-(4-chlorophenyl)piperidin-1-yl)methyl)-7,8,9,10-tetrahydro-5H-dipyrido[1,2-a:3′,2′-e]pyrazin-6(6aH)-one] | ≧0 | ≥ 50.1
N#Cc1ccc(N2CCN(Cc3cnc4c(c3)NC(=O)[C@@H]3CCCCN43)CC2)nc1 [Compound 72, (S)-6-(4-((6-oxo-6,6a,7,8,9,10-hexahydro-5H-dipyrido[1,2-a:3′,2′-e]pyrazin-3-yl)methyl)piperazin-1-yl)nicotinonitrile] | >500 | ≤ 12.6
CNC(=O)c1ccc(N2CCN(Cc3cnc4c(c3)NC(=O)[C@@H]3CCCCN43)CC2)cc1 [Compound 74, (S)—N-methyl-4-(4-((6-oxo-6,6a,7,8,9,10-hexahydro-5H-dipyrido[1,2-a:3′,2′-e]pyrazin-3-yl)methyl)piperazin-1-yl)benzamide] | >10 | ≤ 12.6
O=C(NC1CC1)c1ccc(N2CCN(Cc3cnc4c(c3)NC(=O)[C@@H]3CCCCN43)CC2)cc1 [Compound 75, (S)—N-cyclopropyl-4-(4-((6-oxo-6,6a,7,8,9,10-hexahydro-5H-dipyrido[1,2-a:3′,2′-e]pyrazin-3-yl)methyl)piperazin-1-yl)benzamide] | >500 | 15.8 to 39.8
CNC(=O)c1ccc(N2CCN(Cc3cnc4c(c3)NC(=O)[C@@H]3CCCCN43)CC2)nc1 [Compound 77, (S)—N-methyl-6-(4-((6-oxo-6,6a,7,8,9,10-hexahydro-5H-dipyrido[1,2-a:3′,2′-e]pyrazin-3-yl)methyl)piperazin-1-yl)nicotinamide] | >10 | 15.8 to 39.8
O=C1Nc2cc(CN3CCN(c4ccc(Cl)cc4)CC3)cnc2N2CCSCC12 (centres unmarked) [Compound 87, 3-((4-(4-chlorophenyl)piperazin-1-yl)methyl)-6a,7,9,10-tetrahydropyrido[3,2-e][1,4]thiazino[4,3-a]pyrazin-6(5H)-one] | >10 | 15.8 to 39.8
N#Cc1ccc(N2CCN(Cc3cnc4c(c3)NC(=O)[C@@H]3CSCCN43)CC2)cc1 [Compound 90, (R)-4-(4-((6-oxo-5,6,6a,7,9,10-hexahydropyrido[3,2-e][1,4]thiazino[4,3-a]pyrazin-3-yl)methyl)piperazin-1-yl)benzonitrile] | >10 | ≤ 12.6
CC(C)N1CC(=O)Nc2cc(CN3CC=C(c4ccc(Cl)cc4)CC3)cnc21 [Compound 94, 7-((4-(4-chlorophenyl)-5,6-dihydropyridin-1(2H)-yl)methyl)-4-isopropyl-3,4-dihydropyrido[2,3-b]pyrazin-2(1H)-one] | ≧0 | ≥ 50.1
CC(C)N1CC(=O)Nc2cc(CN3CCN(c4ccc(Cl)cc4)CC3)cnc21 [Compound 95, 7-((4-(4-chlorophenyl)piperazin-1-yl)methyl)-4-isopropyl-3,4-dihydropyrido[2,3-b]pyrazin-2(1H)-one] | ≧0 | ≥ 50.1
N#Cc1ccc(N2CCN(Cc3cnc4c(c3)NC(=O)[C@@H]3CCN43)CC2)cc1 [Compound 102, (S)-4-(4-((6-oxo-6,6a,7,8-tetrahydro-5H-azeto[1,2-a]pyrido[3,2-e]pyrazin-3-yl)methyl)piperazin-1-yl)benzonitrile] | ≧0 | 15.8 to 39.8
N#Cc1ccc(N2CCN(Cc3cnc4c(c3)NC(=O)CC3CCCN43)CC2)cc1 (centres unmarked) [Compound 103, 4-(4-((6-oxo-6,7,7a,8,9,10-hexahydro-5H-pyrido[3,2-b]pyrrolo[1,2-d][1,4]diazepin-3-yl)methyl)piperazin-1-yl)benzonitrile] | ≧0 | 15.8 to 39.8
O=C1CC2CCCN2c2ncc(CN3CCN(c4ccc(Cl)cc4)CC3)cc2N1 (centres unmarked) [Compound 104, 3-((4-(4-chlorophenyl)piperazin-1-yl)methyl)-7a,8,9,10-tetrahydro-5H-pyrido[3,2-b]pyrrolo[1,2-d][1,4]diazepin-6(7H)-one] | ≧0 | ≥ 50.1
C[C@H]1CN(c2ccc(C#N)cc2)CCN1Cc1cnc2c(c1)NC(=O)[C@@H]1CSCCN21 [Compound 105, 4-((S)-3-methyl-4-(((R)-6-oxo-5,6,6a,7,9,10-hexahydropyrido[3,2-e][1,4]thiazino[4,3-a]pyrazin-3-yl)methyl)piperazin-1-yl)benzonitrile] | >10 | 15.8 to 39.8
CCNC(=O)c1ccc(N2CCN(Cc3cnc4c(c3)NC(=O)[C@@H]3CSCCN43)CC2)c(F)c1 [Compound 106, (R)—N-ethyl-3-fluoro-4-(4-((6-oxo-5,6,6a,7,9,10-hexahydropyrido[3,2-e][1,4]thiazino[4,3-a]pyrazin-3-yl)methyl)piperazin-1-yl)benzamide] | >5000 | ≤ 12.6
CCNC(=O)c1ccc(N2CCN(Cc3cnc4c(c3)NC(=O)[C@@H]3CSCCN43)CC2)c(Cl)c1 [Compound 107, (R)-3-chloro-N-ethyl-4-(4-((6-oxo-5,6,6a,7,9,10-hexahydropyrido[3,2-e][1,4]thiazino[4,3-a]pyrazin-3-yl)methyl)piperazin-1-yl)benzamide] | >2000 | 15.8 to 39.8
CNC(=O)c1ccc(N2CCN(Cc3cnc4c(c3)NC(=O)[C@@H]3CSCCN43)CC2)c(Cl)c1 [Compound 108, (R)-3-chloro-N-methyl-4-(4-((6-oxo-5,6,6a,7,9,10-hexahydropyrido[3,2-e][1,4]thiazino[4,3-a]pyrazin-3-yl)methyl)piperazin-1-yl)benzamide] | >500 | ≤ 12.6
CCNC(=O)c1ccc(N2CCN(Cc3cnc4c(c3)NC(=O)[C@@H]3CCCCN43)CC2)c(F)c1 [Compound 109, (S)—N-ethyl-3-fluoro-4-(4-((6-oxo-6,6a,7,8,9,10-hexahydro-5H-dipyrido[1,2-a:3′,2′-e]pyrazin-3-yl)methyl)piperazin-1-yl)benzamide] | >2000 | 15.8 to 39.8
CCNC(=O)c1ccc(N2CCN(Cc3cnc4c(c3)NC(=O)[C@@H]3CCCCN43)CC2)c(Cl)c1 [Compound 110, (S)-3-chloro-N-ethyl-4-(4-((6-oxo-6,6a,7,8,9,10-hexahydro-5H-dipyrido[1,2-a:3′,2′-e]pyrazin-3-yl)methyl)piperazin-1-yl)benzamide] | >5000 | 15.8 to 39.8
CNC(=O)c1ccc(N2CCN(Cc3cnc4c(c3)NC(=O)[C@@H]3CCCCN43)CC2)c(Cl)c1 [Compound 111, (S)-3-chloro-N-methyl-4-(4-((6-oxo-6,6a,7,8,9,10-hexahydro-5H-dipyrido[1,2-a:3′,2′-e]pyrazin-3-yl)methyl)piperazin-1-yl)benzamide] | >5000 | 15.8 to 39.8
CNC(=O)c1ccc(N2CCN(Cc3cnc4c(c3)NC(=O)[C@@H]3CCCCN43)CC2)c(F)c1 [Compound 112, (S)-3-fluoro-N-methyl-4-(4-((6-oxo-6,6a,7,8,9,10-hexahydro-5H-dipyrido[1,2-a:3′,2′-e]pyrazin-3-yl)methyl)piperazin-1-yl)benzamide] | >10 | ≤ 12.6
CNC(=O)c1ccc(N2CCN(Cc3cnc4c(c3)NC(=O)[C@@H]3CCCCN43)CC2)c(C)c1 [Compound 113, (S)—N,3-dimethyl-4-(4-((6-oxo-6,6a,7,8,9,10-hexahydro-5H-dipyrido[1,2-a:3′,2′-e]pyrazin-3-yl)methyl)piperazin-1-yl)benzamide] | >2000 | ≥ 50.1
CCNC(=O)c1ccc(N2CCN(Cc3cnc4c(c3)NC(=O)[C@@H]3CCCCN43)CC2)c(C)c1 [Compound 114, (S)—N-ethyl-3-methyl-4-(4-((6-oxo-6,6a,7,8,9,10-hexahydro-5H-dipyrido[1,2-a:3′,2′-e]pyrazin-3-yl)methyl)piperazin-1-yl)benzamide] | >2000 | ≥ 50.1
Cc1cc(C(=O)NC2CC2)ccc1N1CCN(Cc2cnc3c(c2)NC(=O)[C@@H]2CCCCN32)CC1 [Compound 115, (S)—N-cyclopropyl-3-methyl-4-(4-((6-oxo-6,6a,7,8,9,10-hexahydro-5H-dipyrido[1,2-a:3′,2′-e]pyrazin-3-yl)methyl)piperazin-1-yl)benzamide] | >2000 | 15.8 to 39.8
O=C(NC1CC1)c1ccc(N2CCN(Cc3cnc4c(c3)NC(=O)[C@@H]3CCCCN43)CC2)c(F)c1 [Compound 116, (S)—N-cyclopropyl-3-fluoro-4-(4-((6-oxo-6,6a,7,8,9,10-hexahydro-5H-dipyrido[1,2-a:3′,2′-e]pyrazin-3-yl)methyl)piperazin-1-yl)benzamide] | >5000 | ≤ 12.6
O=C(NC1CC1)c1ccc(N2CCN(Cc3cnc4c(c3)NC(=O)[C@@H]3CCCCN43)CC2)c(Cl)c1 [Compound 117, (S)-3-chloro-N-cyclopropyl-4-(4-((6-oxo-6,6a,7,8,9,10-hexahydro-5H-dipyrido[1,2-a:3′,2′-e]pyrazin-3-yl)methyl)piperazin-1-yl)benzamide] | >5000 | 15.8 to 39.8
